Assay results as given in paper PMC2215728 (The Journal of General Physiology, 1978).
Read-outs that look alike come from different tables or passages of the source.

How the values were obtained:
[1] = Partition in two-phase aqueous/organic solvent; format: physicochemical; conditions: heptane:aqueous partition of nonionized form
[2] = Table III, cited from earlier work
[3] = system: everted segments of rat ileum; assay: Influx of weak electrolytes into everted segments of rat ileum in vitro; conditions: for Influx Ileum: Table III; for Resistance Ileum Unstirred layer: Table V, calculated as d/DSc
[4] = system: everted segments of rat jejunum; assay: Influx of weak electrolytes into everted segments of rat jejunum in vitro; conditions: for Influx Jejunum: Table III; for Resistance Jejunum Unstirred layer: Table V, calculated as d/DSc; for Ratio of influx and nonionized concentration: J(1 + 10a)/C
[5] = system: everted segments of rat jejunum
[6] = system: everted segments of rat ileum
[7] = 1 mM, pH 7.40, 1 min, 37C, mean SE (n)
[8] = Table I, everted rat jejunum, 1 mM solution, second weak electrolyte (10 mM): Benzylamine
[9] = Table I, everted rat jejunum, 1 mM solution, second weak electrolyte (10 mM): Pentanoic acid
[10] = Table I, everted rat jejunum, 1 mM solution, second weak electrolyte (10 mM): c-Hexylamine
[11] = Table I, everted rat jejunum, 1 mM solution, second weak electrolyte (10 mM): Benzoic acid
[12] = 0.1 mM solution, observed influx increased by a factor of 10
[13] = Table II, everted segments (region not stated), pH 7.4

| Structure (SMILES) | Influx Ileum [3, 7] [nmol.100mg dry wt-1.min-1] | Resistance Ileum Unstirred layer [3] | Influx Jejunum [4, 7] [nmol.100mg dry wt-1.min-1] | Resistance Jejunum Unstirred layer [4] [cm-3.min.100 mg dry wt] | other results |
| --- | --- | --- | --- | --- | --- |
| CC(C)N [2-Amino propane] | 4 | 1.54 cm-3.min.100 mg dry wt | 6 | 1.47 | ratio of kni Hept values for 2-amino-propane and propionic acid [1]: greater than 20; pKa ([2]; ref Ref. 6): 10.63 |
| CC(=O)O [Acetic, acetic acid] | 3 | – | 0 | – | – |
| O=C(O)c1ccccc1 [Benzoic, Benzoic acid] | 15 | – | 17 | – | Influx [4, 8]: 19 nmol.100mg dry wt-1.min-1; Influx [4, 9]: 21 nmol.100mg dry wt-1.min-1; Influx [4, 10]: 17 nmol.100mg dry wt-1.min-1 |
| NCc1ccccc1 [Benzylamine] | 155 | 2,02 cm-3.min.100 mg dry wt | 220 | 1.92 | Influx [4, 11]: 221 nmol.100mg dry wt-1.min-1; Influx [4, 10]: 211 nmol.100mg dry wt-1.min-1 |
| CCCC(=O)O [Butyric] | 11 | – | 12 | – | – |
| CCCCCCCCCC(=O)O [Decanoic, decanoic acid] | – | 2.93 cm-3.min.100 mg dry wt | – | 2.79 | Influx Ileum [3, 12]: 158 nmol.100mg dry wt-1.min-1; Influx Jejunum [4, 12]: 361 nmol.100mg dry wt-1.min-1 |
| CCCCCCCCCCN [Decylamine] | – | – | – | 2.78 | Influx Jejunum [4, 12]: 264 nmol.100mg dry wt-1.min-1 |
| O=C(O)C(c1ccccc1)c1ccccc1 [Diphenylacetic] | 7 | 2.95 cm-3.min.100 mg dry wt | 14 | 2.81 | pKa ([2]; ref Ref. 6): 3.94 |
| CCCCCCC(=O)O [Heptanoic] | 50 | 2.43 cm-3.min.100 mg dry wt | 81 | 2.31 | pKa ([2]; ref Ref. 6): 4.89 |
| CCCCCC(=O)O [Hexanoic, HEXANOIC ACID] | 29 | 2.24 cm-3.min.100 mg dry wt | 73 | 2.13 | – |
| CN1C(=O)NC(=O)C(C)(C2=CCCCC2)C1=O (centres unmarked) [Hexobarbital] | 327 | 3.00 cm-3.min.100 mg dry wt | 348 | 2.86 | pKa ([2]; ref Bush (1)): 8.20 |
| CCC(=O)C(CC(C)N(C)C)(c1ccccc1)c1ccccc1 (centres unmarked) [Methadone] | 259 | 3.93 cm-3.min.100 mg dry wt | 272 | 3.74 | – |
| C=CCN1CC[C@]23c4c5ccc(O)c4O[C@H]2C(=O)CC[C@@]3(O)[C@H]1C5 [Naloxone] | 263 | – | 286 | 3.38 | pKa ([2]; ref Taylor (11)): 6.93 |
| CCCCCCCC(=O)O [Octanoic, Octanoic acid] | 56 | 2.60 cm-3.min.100 mg dry wt | 147 | 2.47 | Influx [4, 13]: 145; Influx ([4]; Table II, everted segments (region not stated), pH 7.9): 60; Influx ([4]; Table II, everted segments (region not stated), pH 8.4): 15 |
| CCCCC(=O)O [Pentanoic, Pentanoic acid] | 18 | 2.05 cm-3.min.100 mg dry wt | 22 | 1.95 | Influx [4, 11]: 22 nmol.100mg dry wt-1.min-1; Influx [4, 8]: 18 nmol.100mg dry wt-1.min-1; Influx [4, 10]: 20 nmol.100mg dry wt-1.min-1 |
| CCC1(c2ccccc2)C(=O)NC(=O)NC1=O [Phenobarbital] | – | 2.95 cm-3.min.100 mg dry wt | 321 | 2.81 | – |
| O=C(O)Cc1ccccc1 [Phenylacetic, PHENYLACETIC ACID] | 15 | 2.27 cm-3.min.100 mg dry wt | 24 | 2.16 | – |
| CCC(=O)O [Propionic, propionic acid] | 9 | 1.61 cm-3.min.100 mg dry wt | 6 | 1.53 | – |
| NC1CCCCC1 [c-Hexylamine] | 6 | 2.05 cm-3.min.100 mg dry wt | 12 | 1.95 | pKa ([2]; ref Ref. 6): 10.66; Influx [4, 11]: 9 nmol.100mg dry wt-1.min-1; Influx [4, 8]: 12 nmol.100mg dry wt-1.min-1; Influx [4, 9]: 9 nmol.100mg dry wt-1.min-1; Influx [4, 13]: 12; Ratio of influx and nonionized concentration ([4]; Table II, pH 7.4): 22; Ratio of influx and nonionized concentration ([4]; Table II, pH 7.9): 24 |
| CCCCCCCO [heptanol] | – | – | – | – | influx of heptanol with pH of incubation saline ([4]; preliminary experiments, range of pH values 7.5-8.5): constant |
| CC(C)C(=O)O [iso-Butyric] | 13 | 1.84 cm-3.min.100 mg dry wt | 10 | 1.75 | – |
| CC(C)CC(=O)O [iso-Pentanoic] | 20 | – | 21 | – | Resistance Jejunum Empirical [5]: 4.76x 101; Resistance Jejunum Unstirred layer [5]: 1.95; Resistance Ileum Empirical [6]: 5.00x 101; Resistance Ileum Unstirred layer [6]: 2.05 |
